Data as given in US20090143279A1 (priority 2007, published 2009).
Read-outs that look alike come from different tables or passages of the source.

Tests used:
nuOXPHOS transcripts = type: cell-based, mouse; conditions: for nucOX (composite Z-score) / nucOX: Conc 20 μM; for nucOX (composite Z-score): normalized score vs mock-treated (DMSO) wells
cytochrome c = type: cell-based, mouse; conditions: Conc 20 μM; for cyt c (composite Z-score): normalized score vs mock-treated (DMSO) wells
[1] = system: cellular dehydrogenase activity; conditions: Conc 20 μM; for MTT (composite Z-score): normalized score vs mock-treated (DMSO) wells
mtOXPHOS transcripts = type: cell-based, mouse; conditions: for mitoOX (composite Z-score) / mitoOX: Conc 20 μM; for mitoOX (composite Z-score): normalized score vs mock-treated (DMSO) wells
reactive oxygen species = type: cell-based, mouse; conditions: Conc 20 μM; for ROS (composite Z-score): normalized score vs mock-treated (DMSO) wells
[2] = system: mitochondrial membrane potential; type: cell-based, mouse; conditions: Conc 20 μM; for ΔΨm (composite Z-score): normalized score vs mock-treated (DMSO) wells
OXPHOS gene expression = type: cell-based, mouse; conditions: Conc 20 μM; for GE-HTS (composite Z-score): normalized score vs mock-treated (DMSO) wells
C2C12 myotubes = conditions: Conc 20 μM; for Viability (composite Z-score): normalized score vs mock-treated (DMSO) wells
[3] = composite Z-score vs mock-treated (DMSO) wells
[4] = Table 7, C2C12 myotubes, 48 h, composite Z-score
[5] = normalized composite Z-score vs mock-treated (DMSO) wells

Compound	nucOX (nuOXPHOS transcripts; composite Z-score vs DMSO)	cyt c (cytochrome c; composite Z-score vs DMSO)	MTT ([1]; composite Z-score vs DMSO)	mitoOX (mtOXPHOS transcripts; composite Z-score vs DMSO)	ROS (reactive oxygen species; composite Z-score vs DMSO)	ΔΨm ([2]; composite Z-score vs DMSO)	GE-HTS (OXPHOS gene expression; composite Z-score vs DMSO)	Viability (C2C12 myotubes; composite Z-score vs DMSO)	nucOX (nuOXPHOS transcripts; [5])	cyt c (cytochrome c; [5])	MTT [1, 5]	mitoOX (mtOXPHOS transcripts; [5])	ROS (reactive oxygen species; [5])	ΔΨm [2, 5]	GE-HTS (OXPHOS gene expression; [5])	Viability (C2C12 myotubes; [5])	other results
O=C(O[C@@H]1Cc2c(O)cc(O)cc2O[C@@H]1c1cc(O)c(O)c(O)c1-c1c([C@H]2Oc3cc(O)cc(O)c3C[C@H]2O)cc(O)c(O)c1O)c1cc(O)c(O)c(O)c1 [2′,2′-bisepigallocatechin monogallate]	–	–	–	–	–	–	–	–	–	–	–	–	–	–	–	–	nucOX (composite Z-score) (nuOXPHOS transcripts): −0.545; cyt c (composite Z-score) (cytochrome c): 0.246; MTT (composite Z-score) [1]: −1.318; mitoOX (composite Z-score) (mtOXPHOS transcripts): −0.575; ROS (composite Z-score) (reactive oxygen species): 0.428; ΔΨm (composite Z-score) [2]: −2.350; GE-HTS (composite Z-score) (OXPHOS gene expression): −0.573; Viability (composite Z-score) (C2C12 myotubes): 0.442
O=C(/C=C/c1ccccc1)c1ccc(O[C@@H]2O[C@H](CO)[C@@H](O)[C@H](O)[C@H]2O)cc1O [2′,4′-dihydroxychalcone 4′-glucoside]	–	–	–	–	–	–	–	–	–	–	–	–	–	–	–	–	nucOX (composite Z-score) (nuOXPHOS transcripts): −0.247; cyt c (composite Z-score) (cytochrome c): −0.225; MTT (composite Z-score) [1]: −1.358; mitoOX (composite Z-score) (mtOXPHOS transcripts): 0.004; ROS (composite Z-score) (reactive oxygen species): 1.144; ΔΨm (composite Z-score) [2]: −0.532; GE-HTS (composite Z-score) (OXPHOS gene expression): −0.189; Viability (composite Z-score) (C2C12 myotubes): 0.556
O=C(C=C(O)c1ccccc1)c1ccccc1O [2′,beta-dihydroxychalcone]	−0.188	−0.260	−1.791	0.600	0.194	−0.044	0.097	−0.801	–	–	–	–	–	–	–	–	–
COc1ccc(-c2coc3cc(O)ccc3c2=O)c(OC)c1 [2′-methoxyformonetin]	–	–	–	–	–	–	–	–	–	–	–	–	–	–	–	–	nucOX (nuOXPHOS transcripts; [3]): −0.561; cyt c (cytochrome c; [3]): −1.318; MTT [1, 3]: −1.138; mitoOX (mtOXPHOS transcripts; [3]): −0.296; ROS (reactive oxygen species; [3]): 1.137; ΔΨm [2, 3]: 0.388; GE-HTS (OXPHOS gene expression; [3]): −0.484; Viability (C2C12 myotubes; [3]): 0.477
COc1cc(C=CC=O)cc(OC)c1OC [3,4,5-trimethoxycinnamaldehyde]	−0.724	−0.808	1.043	0.025	−0.228	0.647	−0.523	1.061	–	–	–	–	–	–	–	–	–
CC1(O)CC2C(CC1O)C2(C)C (stereo not shown) [3,4-dihydroxycarane]	−0.951	0.475	−0.697	−1.620	0.697	−0.659	−1.265	0.448	–	–	–	–	–	–	–	–	–
C=CC(C1=CC(=O)C(OC)=C(OC)C1=O)c1ccccc1 (stereo not shown) [3,4-dimethoxydalbergione, reference compound]	–	–	–	–	–	–	–	–	–	–	–	–	–	–	–	–	nucOXPHOS Z (nuOXPHOS transcripts; [4]): −2.94; nucOX (nuOXPHOS transcripts; [3]): −2.944; cyt c (cytochrome c; [3]): −5.551; MTT [1, 3]: −6.200; mito-OXPHOS Z (mtOXPHOS transcripts; [4]): −2.72; mitoOX (mtOXPHOS transcripts; [3]): −2.724; ROS (reactive oxygen species; [3]): −1.269; ΔΨm [2, 3]: −3.787; GE-HTS (OXPHOS gene expression; [3]): −3.047; Viability (C2C12 myotubes; [3]): −4.588
CC(=O)c1cc(CC=C(C)C)c(O)c(CC=C(C)C)c1 [3,5-diprenyl-4-hydroxyacetophenone]	−0.036	−0.220	−0.582	0.538	1.014	−0.022	0.149	−0.293	–	–	–	–	–	–	–	–	–
COc1ccc2c(=O)c(OC)c(-c3ccccc3)oc2c1 [3,7-dimethoxyflavone]	–	–	–	–	–	–	–	–	−1.084	0.982	−1.089	−0.434	0.652	0.817	−0.945	−0.730	–
CC1CC(O)C2OC1CC1C(CC1(C)C)C2C (stereo not shown) [3,7-epoxycaryophyllan-6-ol]	–	–	–	–	–	–	–	–	−1.203	0.604	−1.302	−0.407	0.255	−0.461	−1.018	−0.644	–
COc1c(-c2ccccc2)oc2c(OC)cccc2c1=O [3,8-dimethoxyflavone]	–	–	–	–	–	–	–	–	0.315	0.361	−0.252	0.492	1.553	−0.103	0.399	0.930	–
COC(=O)C[C@H]1C(C)(C)[C@@H](O)[C@@H]2CC3=C4CC(O)O[C@@H](c5ccoc5)[C@]4(C)CCC3[C@@]1(C)C2=O (stereo partly drawn) [3,16-dideoxymexicanolide-3beta-diol]	–	–	–	–	–	–	–	–	0.282	−0.130	−1.091	−0.202	0.587	0.154	0.150	−0.384	–
CC(=O)OC1CC[C@@]2(C)C(CC[C@H]3[C@@H]4CC=C(C(C)=O)[C@@]4(C)C(=O)C[C@@H]32)C1 (stereo partly shown) [3-acetoxypregn-16-en-12,20-dione]	–	–	–	–	–	–	–	–	–	–	–	–	–	–	–	–	nucOX (nuOXPHOS transcripts; [3]): −0.775; cyt c (cytochrome c; [3]): −0.050; MTT [1, 3]: −0.553; mitoOX (mtOXPHOS transcripts; [3]): −0.958; ROS (reactive oxygen species; [3]): 0.201; ΔΨm [2, 3]: −0.216; GE-HTS (OXPHOS gene expression; [3]): −0.885; Viability (C2C12 myotubes; [3]): −0.873
